Test results: patent publication US6287840A (Axys Pharmaceuticals, Inc., priority 1999, dated 2001)
Structures can show the parent of a compound that is named as a salt.

What was measured:
[1] = target: T1, Cathepsin B from human placenta (Homo sapiens, UniProt P07858); assay: Inhibition of cathepsin B, Z-Arg-Arg-AMC fluorescence progress curves; assay type: biochemical; conditions: for k/KI (kirr/KI): values without asterisk
T1 construct: Cathepsin B from human placenta, obtained from Sigma; purchased Sigma; host or cells: human placenta (tissue)
Procedure: Stock solutions of the various inhibitors (10 mM) were made in DMF; dilutions were made in the same solvent. Cathepsin B from human placenta, obtained from Sigma, was approximately 10 nM in the assay. The assay buffer contained 50 mM phosphate at pH 6.2, 2.5 mM dithiothreitol (DTT), and 2.5 mM ethylenediaminetetraacetic acid (EDTA). The substrate for cathepsin B was 50 μM Z-Arg-Arg-AMC (carbobenzyloxyarginylarginylaminomethylcoumarin). The assays were initiated at 25° C. by addition of enzyme to 2 mL of assay buffer containing the substrate and the various inhibitors (30-0.001 (μM). The increase in fluorescence at 460 nm with excitation at 380 nm was followed with time, and the assay was linear throughout the range observed. Inactivation of cathepsin B was indicated by a downward curve in the increase in fluorescence with time. In the absence of inhibitors, the enzymatic production of free AMC was linear throughout the time course of inactivation examined. Data points were collected over at least 3 half-times of inactivation, and in duplicate. The inhibition progress curves were analyzed using non-linear curve fitting software to compute the kobs values. Approximate second-order inactivation constants (kobs /[I]) were calculated for all compounds. For selected inhibitors, plots of 1/[I] vs. 1/kobs yielded the true constants kirr, KI, and kirr /KI, and were corrected for the presence of substrate by dividing KI (app.) by {1+[S]/Km }.

[2] = target: T2, Cathepsin L from rat liver (Rattus norvegicus, UniProt P07154); assay: Inhibition of cathepsin L, Z-Phe-Arg-AMC fluorescence progress curves; assay type: biochemical; conditions: for k/KI (kirr/KI): values without asterisk
T2 construct: Cathepsin L from rat liver; from tissue; host or cells: rat liver
Procedure: (§1) Stock solutions of the various inhibitors (10 mM) were made in DMF; dilutions were made in the same solvent. Cathepsin L from rat liver, (see Mason et al., Biochem. J. 226:233-241 (1985)) was approximately 1 nM in the assay. The assay buffer contained 50 mM phosphate at pH 6:2, 2.5 mM dithiothreitol (DTT), and 2.5 mM ethylenediaminetetraacetic acid (EDTA). The substrate for cathepsin L was 5 μM Z-Phe-Arg-AMC (carbobenzyloxyphenylalanylarginylaminomethylcoumarin). The assays were initiated at 25° C. by addition of enzyme to 2 mL of assay buffer containing the substrate and the various inhibitors (30-0.001 μM). The increase in fluorescence at 460 nm with excitation at 380 nm was followed with time. Inactivation of cathepsin L was indicated by a downward curve in the increase in fluorescence with time. In the absence of inhibitors, the enzymatic production of free AMC was linear throughout the time course of inactivation examined. Data points were collected over at least 3 half-times of inactivation. The inhibition progress curves were analyzed using non-linear curve fitting software to compute the kobs values. Approximate second-order inactivation constants (kobs /[I]) were calculated for all compounds. For selected inhibitors, plots of 1/[I] vs. 1/kobs yielded the true constants kirr, KI, and kirr/KI and were corrected for the presence of substrate by dividing KI (app.) by (1+[S]/Km).

Cloned cathepsin S = target: T3, Cloned cathepsin S (Homo sapiens, UniProt P25774); assay: Inhibition of cathepsin S, Z-Val-Val-Arg-AMC fluorescence progress curves; assay type: biochemical
T3 construct: made in house
Procedure: Stock solutions of the various inhibitors (10 mM) were made in DMF; dilutions were made in the same solvent. Cloned cathepsin S, (see Bromme et al., J. Biol. Chem. 268(&): 4832-4838 (1993)) was less than 1 nM in the assay. The assay buffer contained 100 mM phosphate at pH 6.5, 0.01% Triton, 2.5 mM dithiothreitol (DTT), and 2.5 mM ethylenediaminetetraacetic acid (EDTA). The substrate for cathepsin S was 10 μM Z-Val-Val-Arg-AMC (carbobenzyloxyvalinylvalinylarginylaminomethylcoumarin). The assays were initiated at 25° C. by addition of enzyme to 2 mL of assay buffer containing the substrate and the various inhibitors (30-0.001 μM). The increase in fluorescence at 460 nm with excitation at 380 nm was followed with time. Inactivation of cathepsin S was indicated by a downward curve in the increase in fluorescence with time. In the absence of inhibitors, the enzymatic production of free AMC was linear throughout the time course of inactivation examined. Data points were collected over at least 3 half-times of inactivation. The inhibition progress curves were analyzed using non-linear curve fitting software to compute the kobs values. Approximate second-order inactivation constants (kobs /[I]) were calculated for all compounds. For selected inhibitors, plots of 1/[I] vs. 1/kobs yielded the true constants kirr, KI, and kirr /KI, and were corrected for the presence of substrate by dividing KI (app.) by {1+[S]/Km}.

cruzain, from T. cruzi = cruzain, from T. cruzi (Trypanosoma cruzi, UniProt P25779); assay: Inhibition of cruzain, as for cathepsin L; assay type: biochemical; conditions: for kobs /[I]* (approximate second-order inactivation constant) / kinact/KI: values marked *; for k/KI (kirr/KI): values without asterisk; for kinact/KI: pH 6.2, read-out: kobs /[I]* (approximate second-order inactivation constant)
Procedure: as §1
Inhibition of cruzain, from T. cruzi, (see Eakin et at., J. Biol. Chem. 268(9): 6115-6118 (1993)) proceeded exactly as for cathepsin L, outlined above, using an enzyme concentration of 1 nM.

calpain = assay: Inhibition (inactivation) of calpain, Suc-Leu-Tyr-AMC; assay type: biochemical; conditions: pH 7.5, 5 mM CaCl2, 25° C.; for k/KI (kirr/KI): values without asterisk; for kobs /[I]*: values marked * (or %)
Procedure: The inhibitors were tested against calpain at 1 or 2% as for the other enzymes. The reaction conditions were 50 mM Tris, pH 7.5, 5 mM CaCl2, 2.5 mM DTT, assayed at 25° C. The substrate was 100 μM Suc-Leu-Tyr-AMC.

[3] = test system: Leishmania donovani amastigote infected mouse peritoneal macrophages; assay: In vitro antiprotozoal activity, Leishmania donovani; assay type: cell-based
Procedure: (§2) In this table, the in vitro antiprotozoal activities of the indicated compounds were measured as percentage inhibition of Leishmania donovani amastigote infecteda mouse peritoneal macrophages, Trypanosoma cruzi amastigote infected macrophages, and Trypanosoma brucei extracellular bloodstream forms.

[4] = test system: Trypanosoma cruzi amastigote infected macrophages; assay: In vitro antiprotozoal activity, Trypanosoma cruzi; assay type: cell-based
Procedure: as §2

[5] = test system: Trypanosoma brucei extracellular bloodstream forms; assay: In vitro antiprotozoal activity, Trypanosoma brucei; assay type: cell-based
Procedure: as §2

[6] = test system: human malarial parasite Plasmodium falciparum; assay: In vitro protease activity of malarial parasite, substrate Z-Phe-Arg-AMC; assay type: biochemical; conditions: cells printed in μM; read-out: P. falciparum IC50 (human)
Source text: The following table summarizes the comparative IC50 values for selected cysteine protease inhibitors against the human malarial parasite Plasmodium falciparum and the mouse malarial parasite Plasmodium vinckei. The substrate used to measure in vitro protease activity was Z-Phe-Arg-AMC.

Sequence of cruzain, from T. cruzi (P25779 123-337 limits assumed): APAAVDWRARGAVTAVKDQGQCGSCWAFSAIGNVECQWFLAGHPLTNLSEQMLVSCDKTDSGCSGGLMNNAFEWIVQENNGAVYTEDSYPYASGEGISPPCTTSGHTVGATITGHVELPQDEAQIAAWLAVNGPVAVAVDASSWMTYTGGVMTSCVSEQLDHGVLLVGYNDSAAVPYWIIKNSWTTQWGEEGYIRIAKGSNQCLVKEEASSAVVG
T3 sequence (P25774 115-331): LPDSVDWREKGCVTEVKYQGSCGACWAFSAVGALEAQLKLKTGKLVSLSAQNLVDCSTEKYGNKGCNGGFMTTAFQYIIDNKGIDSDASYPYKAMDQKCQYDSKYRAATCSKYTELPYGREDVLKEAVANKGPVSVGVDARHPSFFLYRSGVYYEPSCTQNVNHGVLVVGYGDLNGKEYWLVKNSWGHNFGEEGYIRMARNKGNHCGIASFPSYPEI
T2 sequence (P07154 114-288 limits assumed): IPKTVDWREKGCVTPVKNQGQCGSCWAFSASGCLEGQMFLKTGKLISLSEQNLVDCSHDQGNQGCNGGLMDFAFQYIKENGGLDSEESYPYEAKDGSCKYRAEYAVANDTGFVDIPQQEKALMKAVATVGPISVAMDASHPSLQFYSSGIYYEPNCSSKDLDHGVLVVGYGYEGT
T2 sequence (P07154 291-334 limits assumed): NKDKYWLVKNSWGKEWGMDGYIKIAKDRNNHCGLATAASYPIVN

## CC(Cc1ccccc1)(NC(=O)N1CCOCC1)C(=O)N[C@H](/C=C/S(=O)(=O)c1ccccc1)CCc1ccccc1 (mixture of isomers) [Mu-DL-Fam-HphVSPh]
[1]; corrected for substrate
  KI: binds
[1]; 25° C., pH 6.2
  k/KI (kirr/KI): 0 M⁻¹ s⁻¹
[2]; corrected for substrate
  KI: binds
[2]; 25° C., pH 6.2
  k/KI (kirr/KI): 0 M⁻¹ s⁻¹
Cloned cathepsin S
  kirr: 0.54 s⁻¹
Cloned cathepsin S; corrected for substrate
  Ki: 14 µM
Cloned cathepsin S; values without asterisk, 25° C., pH 6.5
  k/KI (kirr/KI): 39,000 M^-1 sec^-1
cruzain, from T. cruzi
  kobs /[I]* (approximate second-order inactivation constant): 18,100 M^-1 sec^-1
calpain
  k/KI (kirr/KI): 0 M⁻¹ s⁻¹

## CSCC[C@@H](/C=C/S(=O)(=O)c1ccccc1)NC(=O)[C@H](CC(C)C)NC(=O)[C@H](CC(C)C)NC(C)=O [Ac-Leu-Leu-MetVSPh, (S)-(E)-3-(acetylleucylleucyl)amino-1-phenylsulfonyl-6-thia-1-heptene]
[1]; 25° C., pH 6.2
  k/KI (kirr/KI): 0 M⁻¹ s⁻¹
[2]; 25° C., pH 6.2
  k/KI (kirr/KI): 880,000 M^-1 sec^-1
cruzain, from T. cruzi
  k/KI (kirr/KI): 110,000 M^-1 sec^-1
calpain
  kobs /[I]*: 5,600 M^-1 sec^-1

## CCCC[C@@H](/C=C/S(=O)(=O)c1ccccc1)NC(=O)[C@H](CC(C)C)NC(=O)[C@H](CC(C)C)NC(C)=O [Ac-Leu-Leu-NleVSPh, (S)-(E)-3-(acetylleucylleucyl)amino-1-phenylsulfonyl-1-heptene]
[1]; 25° C., pH 6.2
  k/KI (kirr/KI): 0 M⁻¹ s⁻¹
[2]; 25° C., pH 6.2
  k/KI (kirr/KI): 930,000 M^-1 sec^-1
cruzain, from T. cruzi
  k/KI (kirr/KI): 133,000 M^-1 sec^-1
calpain
  kobs /[I]*: 6,900 M^-1 sec^-1

## CC(=O)N[C@@H](Cc1ccc(O)cc1)C(=O)N[C@H](C(=O)N[C@@H](C)C(=O)NC(/C=C/S(=O)(=O)c1ccccc1)CC(=O)O)C(C)C (stereo partly drawn) [Ac-Tyr-Val-Ala-AspVSPh, (e)-3-acetyltyrosylvalylalanylamino-4-hydroxycarbonyl-1-phenylsulfonyl-1-butene]
[2]; 25° C., pH 6.2
  k/KI (kirr/KI): 0 M⁻¹ s⁻¹
cruzain, from T. cruzi
  k/KI (kirr/KI): 0 M⁻¹ s⁻¹
calpain
  k/KI (kirr/KI): 0 M⁻¹ s⁻¹

## CC(C)(C)OC(=O)C[C@@H](/C=C/S(C)(=O)=O)NC(=O)OC(C)(C)C [Boc-Asp(O-tBu)VSMe, (S)-(E)-3-tert-butoxycarbonylamino-4-tert-butoxycarbonyl-1-methylsulfonyl-1-butene]
[1]; 25° C., pH 6.2
  k/KI (kirr/KI): 0 M⁻¹ s⁻¹
[2]; 25° C., pH 6.2
  k/KI (kirr/KI): 0 M⁻¹ s⁻¹
cruzain, from T. cruzi
  kinact/KI: 800 M⁻¹ s⁻¹
calpain
  k/KI (kirr/KI): 0 M⁻¹ s⁻¹
[3]; Leishmania donovani, Peritoneal macrophage, 3 uM, read-out: percentage inhibition, L. donovani
  inhibition at 3 µM: 0%
[3]; Leishmania donovani, Peritoneal macrophage, 10 uM, read-out: percentage inhibition, L. donovani
  inhibition at 10 µM: 0%
[3]; Leishmania donovani, Peritoneal macrophage, 30 uM, read-out: percentage inhibition, L. donovani
  inhibition at 30 µM: 13.4%
[3]; Leishmania donovani, Peritoneal macrophage, 90 uM, read-out: percentage inhibition, L. donovani
  inhibition at 90 µM: 12.9%
[4]; Trypanosoma cruzi, Macrophage, 3 uM, read-out: percentage inhibition, T. cruzi
  inhibition at 3 µM: 0%
[4]; Trypanosoma cruzi, Macrophage, 10 uM, read-out: percentage inhibition, T. cruzi
  inhibition at 10 µM: 0%
[4]; Trypanosoma cruzi, Macrophage, 30 uM, read-out: percentage inhibition, T. cruzi
  inhibition at 30 µM: 0%
[4]; Trypanosoma cruzi, Macrophage, 90 uM, read-out: percentage inhibition, T. cruzi
  inhibition at 90 µM: 9.9%
[5]; Trypanosoma brucei, 3 uM, read-out: percentage inhibition, T. brucei
  inhibition at 3 µM: 0%
[5]; Trypanosoma brucei, 10 uM, read-out: percentage inhibition, T. brucei
  inhibition at 10 µM: 0%
[5]; Trypanosoma brucei, 30 uM, read-out: percentage inhibition, T. brucei
  inhibition at 30 µM: 0%
[5]; Trypanosoma brucei, 90 uM, read-out: percentage inhibition, T. brucei
  inhibition at 90 µM: 0%

## CC(N)C(=O)NC(C=CS(C)(=O)=O)Cc1ccccc1 (stereo not drawn) [HCl.Ala-PheVSMe]
[6]
  IC50: > 100 µM

## Br.Br.N=C(N)NCCC[C@@H](/C=C/S(=O)(=O)c1ccccc1)NC(=O)[C@H](CCCNC(=N)N)NC(=O)N1CCOCC1 [Mu-Arg-ARgVSPh.2HBr, (S)-(E)-3-(4-morpholinecarbonylarginyl)amino-6-guanidino-1-phenylsulfonyl-1-hexene dihydrobromide]
[1]
  kirr: 0.040 s⁻¹
[1]; corrected for substrate
  Ki: 150 µM
[1]; 25° C., pH 6.2
  k/KI (kirr/KI): 26 M⁻¹ s⁻¹
cruzain, from T. cruzi
  kobs /[I]* (approximate second-order inactivation constant): 2,100 M^-1 sec^-1
calpain
  kobs /[I]*: < 50 M⁻¹ s⁻¹

## CC(C)C[C@H](NC(=O)OCc1ccccc1)C(=O)N[C@@H](CC(C)C)C(=O)N[C@H](/C=C/S(=O)(=O)c1ccccc1)Cc1ccc(O)cc1 [Z-Leu-Leu-TyrVSPh, (S)-(E)-3-(benzyloxycarbonylleucylleucyl)amino-4-(4-hydroxyphenyl)-1-phenylsulfonyl-1-butene]
[1]; values marked *, 25° C., pH 6.2, read-out: kobs /[I]* (approximate second-order inactivation constant)
  kinact/KI: 730 M⁻¹ s⁻¹
Cloned cathepsin S; values marked *, 25° C., pH 6.5, read-out: kobs /[I]* (approximate second-order inactivation constant)
  kinact/KI: 280000 M⁻¹ s⁻¹
cruzain, from T. cruzi
  kinact/KI: 45000 M⁻¹ s⁻¹
calpain
  kobs /[I]*: 36,400 M^-1 sec^-1
  k/KI (kirr/KI): 24,300 M^-1 sec^-1

## (S)-(E)-3-(4-morpholinecarbonylphenylalanyl)amino-1-methylsulfonyl-1-butene [Mu-Phe-AlaVSMe]
[1]
  kirr: 0.19 s⁻¹
[1]; corrected for substrate
  Ki: ~1000 µM
[1]; 25° C., pH 6.2
  k/KI (kirr/KI): 300 M⁻¹ s⁻¹
Cloned cathepsin S; values marked *, 25° C., pH 6.5
  kobs /[I]* (approximate second-order inactivation constant): 26,000 M^-1 sec^-1
cruzain, from T. cruzi
  kobs /[I]* (approximate second-order inactivation constant): 700 M⁻¹ s⁻¹
calpain
  kobs /[I]*: < 50 M⁻¹ s⁻¹
[3]; 3 uM
  percentage inhibition, L. donovani: 0%
[3]; 10 uM
  percentage inhibition, L. donovani: 0%
[3]; 30 uM
  percentage inhibition, L. donovani: 0%
[3]; 90 uM
  percentage inhibition, L. donovani: 6.7%
[4]; 3 uM
  percentage inhibition, T. cruzi: 0%
[4]; 10 uM
  percentage inhibition, T. cruzi: 0%
[4]; 30 uM
  percentage inhibition, T. cruzi: 11.2%
[4]; 90 uM
  percentage inhibition, T. cruzi: 12.2%
[5]; 3 uM
  percentage inhibition, T. brucei: 0%
[5]; 10 uM
  percentage inhibition, T. brucei: 0%
[5]; 30 uM
  percentage inhibition, T. brucei: 0%
[5]; 90 uM
  percentage inhibition, T. brucei: 0%
[6]
  IC50: 20 µM

## (S)-(E)-3-(4-morpholinecarbonylphenylalanyl)amino-1-methylsulfonyl-4-phenyl-1-butene [Mu-Phe-PheVSMe]
[2]; values marked *, 25° C., pH 6.2
  kobs /[I]* (approximate second-order inactivation constant): 100 M⁻¹ s⁻¹
calpain
  kobs /[I]*: 260 M⁻¹ s⁻¹
[6]
  IC50: 2 µM
